68 sequences from the supplement of paper PMC11208160 can be followed below.
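Further: IS621 bridge recombinase in Escherichia coli cells against a fixed T5 target plasmid.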

The data set is described as follows: recombinant UMI read abundance after kanamycin selection (control-corrected) (log10(CPM+1)); higher = more efficient recombination; extreme values may be limits of the assay; sequences stand for … in AGTGCAGAGAAAATCGGCCAGTTTTCTCTGCCTGCAGTCCGCATGCCGTGGGACCCCTTGGGTTCTAACCTGTTGCCTAGATTTATGCAGCGGACTGCCTTTCTCCCAAAGTGATAAACCGG…AGGTTGGTTTCACT; site = the 11-nt donor. In a few lines:
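Two replicates each of selected and unselected plating were used in this pooled Escherichia coli screen of donor and donor-binding-loop pairs for the IS621 bridge recombinase. Selection was with IPTG (0.07 mM) and kanamycin. Counts of recombinant UMIs, amplified across the donor–target junction, were converted to CPM, averaged, scaled by control-derived factors and reported as log10(CPM+1).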
With “CTGTCTCCATGGACCGGTTTTCCCGGTAATCCGTATTTGTC (site CTGTCTCCTGA)”, the “recombinant UMI read abundance (log10)” value was 0.331. “CTTAGATCATGGACCGGTTTTCCCGGTAATCCGTATTTGGG (site CTTAGATCTCC)”: the “recombinant UMI read abundance (log10)” value stood at 0.475. Under “CTTATAACATGGACCGGTTTTCCCGGTAATCCGTATTTGGA (site CTTATAACTTC)” stands 1; under “CTTCAATCATGGACCGGTTTTCCCGGTAATCCGTATTTGGT (site CTTCAATCTAC)”, 1.96. Turning to “CTTCCGACATGGACCGGTTTTCCCGGTAATCCGTATTTGAC (site CTTCCGACTGT)”, the “recombinant UMI read abundance (log10)” value came out at 2.04. In the case of “CTTCCTACATGGACCGGTTTTCCCGGTAATCCGTATTTGAG (site CTACCTACTCT)” it was 0.0179; in that of “CTTCCTACATGGACCGGTTTTCCCGGTAATCCGTATTTGAG (site CTCCCTACTCT)”, 0.0168; in that of “CTTCCTACATGGACCGGTTTTCCCGGTAATCCGTATTTGAG (site CTGCCTACTCT)”, 0.0339. Consider “CTTCCTACATGGACCGGTTTTCCCGGTAATCCGTATTTGAG (site CTTCCTACTCT)”, for which the “recombinant UMI read abundance (log10)” value came to 0.0166. For the sequence “CTTCGAGCATGGACCGGTTTTCCCGGTAATCCGTATTTGCA (site ATTCGAGCTTG)”, the “recombinant UMI read abundance (log10)” value was determined as 0.00677.

“CTTCGAGCATGGACCGGTTTTCCCGGTAATCCGTATTTGCA (site CTTCGAGCTTG)”: the “recombinant UMI read abundance (log10)” value was determined as 1.03. Regarding “CTTCGAGCATGGACCGGTTTTCCCGGTAATCCGTATTTGCA (site GTTCGAGCTTG)”, the “recombinant UMI read abundance (log10)” value worked out at 0.

Take “CTTCGAGCATGGACCGGTTTTCCCGGTAATCCGTATTTGCA (site TTTCGAGCTTG)”: the “recombinant UMI read abundance (log10)” value was found to be 0. Take “CTTCTACCATGGACCGGTTTTCCCGGTAATCCGTATTTGCT (site CTACTACCTAG)”: the “recombinant UMI read abundance (log10)” value worked out at 0. In the case of “CTTCTACCATGGACCGGTTTTCCCGGTAATCCGTATTTGCT (site CTCCTACCTAG)” it was 0.00753; in that of “CTTCTACCATGGACCGGTTTTCCCGGTAATCCGTATTTGCT (site CTGCTACCTAG)”, 0; in that of “CTTCTACCATGGACCGGTTTTCCCGGTAATCCGTATTTGCT (site CTTCTACCTAG)”, 0.00449. Consider “CTTCTATCATGGACCGGTTTTCCCGGTAATCCGTATTTGGT (site CTTCTATCTAC)”, for which the “recombinant UMI read abundance (log10)” value amounted to 1.58. Under “CTTCTCCCATGGACCGGTTTTCCCGGTAATCCGTATTTGTA (site CTTCTCACTTA)” stands 0.0088. Under “CTTCTCCCATGGACCGGTTTTCCCGGTAATCCGTATTTGTA (site CTTCTCCCTTA)” stands 0.487; under “CTTCTCCCATGGACCGGTTTTCCCGGTAATCCGTATTTGTA (site CTTCTCGCTTA)”, 0.0148; under “CTTCTCCCATGGACCGGTTTTCCCGGTAATCCGTATTTGTA (site CTTCTCTCTTA)”, 0.837. Under “CTTCTCGCATGGACCGGTTTTCCCGGTAATCCGTATTTGCG (site CTTCTCGCTCG)” stands 0.0091; under “CTTGCCCCATGGACCGGTTTTCCCGGTAATCCGTATTTGTA (site CTTGCCCCTTA)”, 0.366. Consider “CTTGCTTCATGGACCGGTTTTCCCGGTAATCCGTATTTGAT (site CTTGCTTCTAT)”, for which the “recombinant UMI read abundance (log10)” value worked out at 0.0131. In the case of “CTTGGAACATGGACCGGTTTTCCCGGTAATCCGTATTTGTT (site CATGGAACTAA)” it was 0.791; in that of “CTTGGAACATGGACCGGTTTTCCCGGTAATCCGTATTTGTT (site CCTGGAACTAA)”, 0.00748. Under “CTTGGAACATGGACCGGTTTTCCCGGTAATCCGTATTTGTT (site CGTGGAACTAA)” stands 0.00508; under “CTTGGAACATGGACCGGTTTTCCCGGTAATCCGTATTTGTT (site CTTGGAACTAA)”, 1.36; under “CTTGTAACATGGACCGGTTTTCCCGGTAATCCGTATTTGCA (site CTTGTAACTTG)”, 0.147. Under “CTTGTATCATGGACCGGTTTTCCCGGTAATCCGTATTTGAC (site CTAGTATCTGT)” stands 0; under “CTTGTATCATGGACCGGTTTTCCCGGTAATCCGTATTTGAC (site CTCGTATCTGT)”, 0; under “CTTGTATCATGGACCGGTTTTCCCGGTAATCCGTATTTGAC (site CTGGTATCTGT)”, 0. On to “CTTGTATCATGGACCGGTTTTCCCGGTAATCCGTATTTGAC (site CTTGTATCTGT)”, for which the “recombinant UMI read abundance (log10)” value came to 0.

In the case of “CTTGTATCATGGACCGGTTTTCCCGGTAATCCGTATTTGGC (site CTAGTATCTGT)”, the “recombinant UMI read abundance (log10)” value was found to be 0.315. Under “CTTGTATCATGGACCGGTTTTCCCGGTAATCCGTATTTGGC (site CTTGTATCTGC)” stands 0.486. As to “CTTTAAACATGGACCGGTTTTCCCGGTAATCCGTATTTGTC (site CTTTAAACTGA)”, the “recombinant UMI read abundance (log10)” value came out at 0. For the sequence “CTTTTCTCATGGACCGGTTTTCCCGGTAATCCGTATTTGTA (site CTTATCTCTTA)”, the “recombinant UMI read abundance (log10)” value is 0. “CTTTTCTCATGGACCGGTTTTCCCGGTAATCCGTATTTGTA (site CTTCTCTCTTA)”: the “recombinant UMI read abundance (log10)” value is 0.274. Under “CTTTTCTCATGGACCGGTTTTCCCGGTAATCCGTATTTGTA (site CTTGTCTCTTA)” stands 0.00384. “CTTTTCTCATGGACCGGTTTTCCCGGTAATCCGTATTTGTA (site CTTTTCTCTTA)”: the “recombinant UMI read abundance (log10)” value came out at 0.0916.

On to “GAAACTACATGGACCGGTTTTCCCGGTAATCCGTATTTGCC (site GAAACTACTGG)”, for which the “recombinant UMI read abundance (log10)” value came to 1.88. With “GAACACCCATGGACCGGTTTTCCCGGTAATCCGTATTTGGA (site GAACACCCTTC)”, the “recombinant UMI read abundance (log10)” value came out at 0.00915. Under “GAACATACATGGACCGGTTTTCCCGGTAATCCGTATTTGAA (site GAACATACTTT)” stands 1.69; under “GAACATTCATGGACCGGTTTTCCCGGTAATCCGTATTTGTT (site GAAAATTCTAA)”, 0. Under “GAACATTCATGGACCGGTTTTCCCGGTAATCCGTATTTGTT (site GAACATTCTAA)” stands 2.03. Under “GAACATTCATGGACCGGTTTTCCCGGTAATCCGTATTTGTT (site GAAGATTCTAA)” stands 0; under “GAACATTCATGGACCGGTTTTCCCGGTAATCCGTATTTGTT (site GAATATTCTAA)”, 0.0114; under “GAACCGACATGGACCGGTTTTCCCGGTAATCCGTATTTGGT (site GAACCGACTAC)”, 0.724. Turning to “GAACGGCCATGGACCGGTTTTCCCGGTAATCCGTATTTGCA (site GAAAGGCCTTG)”, the “recombinant UMI read abundance (log10)” value was 0. Turning to “GAACGGCCATGGACCGGTTTTCCCGGTAATCCGTATTTGCA (site GAACGGCCTTG)”, the “recombinant UMI read abundance (log10)” value is 0.812.

Regarding “GAACGGCCATGGACCGGTTTTCCCGGTAATCCGTATTTGCA (site GAAGGGCCTTG)”, the “recombinant UMI read abundance (log10)” value was determined as 0.

For “GAACGGCCATGGACCGGTTTTCCCGGTAATCCGTATTTGCA (site GAATGGCCTTG)”, the “recombinant UMI read abundance (log10)” value was 0.

Turning to “GAACTCACATGGACCGGTTTTCCCGGTAATCCGTATTTGCT (site GAACTCACTAG)”, the “recombinant UMI read abundance (log10)” value is 2.53. With “GAACTGGCATGGACCGGTTTTCCCGGTAATCCGTATTTGCG (site GAACTGGCTCG)”, the “recombinant UMI read abundance (log10)” value came to 0.715. On to “GAACTTACATGGACCGGTTTTCCCGGTAATCCGTATTTGCG (site GAACTTACTCG)”, for which the “recombinant UMI read abundance (log10)” value came to 1.85. Under “GAAGACTCATGGACCGGTTTTCCCGGTAATCCGTATTTGTT (site GAAGAATCTAA)” stands 0.423. In the case of “GAAGACTCATGGACCGGTTTTCCCGGTAATCCGTATTTGTT (site GAAGACTCTAA)” it was 2.84. Take “GAAGACTCATGGACCGGTTTTCCCGGTAATCCGTATTTGTT (site GAAGAGTCTAA)”: the “recombinant UMI read abundance (log10)” value worked out at 0.00964. In the case of “GAAGACTCATGGACCGGTTTTCCCGGTAATCCGTATTTGTT (site GAAGATTCTAA)” it was 0.506; in that of “GAAGGAGCATGGACCGGTTTTCCCGGTAATCCGTATTTGTA (site GAAGGAGCTTA)”, 2.33; in that of “GAAGGGCCATGGACCGGTTTTCCCGGTAATCCGTATTTGCA (site GAAAGGCCTTG)”, 0. In the case of “GAAGGGCCATGGACCGGTTTTCCCGGTAATCCGTATTTGCA (site GAACGGCCTTG)” it was 0; in that of “GAAGGGCCATGGACCGGTTTTCCCGGTAATCCGTATTTGCA (site GAAGGGCCTTG)”, 0. Regarding “GAAGGGCCATGGACCGGTTTTCCCGGTAATCCGTATTTGCA (site GAATGGCCTTG)”, the “recombinant UMI read abundance (log10)” value came out at 0. In the case of “GAAGGTTCATGGACCGGTTTTCCCGGTAATCCGTATTTGTT (site GAAGATTCTAA)” it was 1.32; in that of “GAAGGTTCATGGACCGGTTTTCCCGGTAATCCGTATTTGTT (site GAAGCTTCTAA)”, 0.00355; in that of “GAAGGTTCATGGACCGGTTTTCCCGGTAATCCGTATTTGTT (site GAAGGTTCTAA)”, 2.35.
